# Data: patent US8580918B2, “Peptidic GLP-2 agonists” (Ferring B.V., priority 2009, dated 2013)
# Where a SMILES comes first, the peptide text is derived from it. [ ]: non-standard residue; d: D form. The star is where a group is joined. 1Nal = N[C@@H](Cc1cccc2ccccc12)C(=O)O; Nle = CCCC[C@H](N)C(=O)O; NHIsopentyl = CC(C)CCN*
# Assay: Pharmacokinetics in rats after intravenous bolus injection (systemic clearance)
# Format: in vivo
# Details: rat, plasma, 0.2 mg FB/kg, adult male Sprague-Dawley rats, i.v. bolus, dose 0.20 mg FB/kg, read-out: CL (ml/kg/min) Average
# Protocol: Pharmacokinetic (PK) parameters of illustrative agonists of the GLP-2 receptor were determined in adult male Sprague-Dawley rats post intravenous bolus injection of compounds at doses of 0.1-1.0 mg/kg. Three or four doubly cannulated animals per compound were dosed via jugular vein, blood samples were collected at several intervals via carotid artery, and plasma samples were prepared from whole blood using K2EDTA as anticoagulant. Subsequent bioanalysis of samples included compound extraction and plasma concentration determination using standard LC/MS/MS methods. Analyte concentration was calculated from internal standard normalized peak area and calibration curves.
# For calculation of PK parameters the compound concentration-time curves were analyzed with the noncompartmental data analysis software package PK Solutions 2.0™ (Summit Research Services, Montrose Colo.). The systemic clearance per kg body weight (CL) was calculated as the dose per kg body weight divided by the AUC extrapolated to infinity based on trapezoid calculation (AUC∞). Values reported are the arithmetic mean and standard deviation from the number of animals used for each compound as indicated on Table 3.
row,SMILES,clearance [mL/kg/min]
1,"CCCC[C@H](NC(=O)[C@H](CCC(=O)O)NC(=O)[C@H](CC(=O)O)NC(=O)[C@H](CO)NC(=O)[C@H](Cc1ccccc1)NC(=O)[C@H](CO)NC(=O)[C@@H](C)NC(=O)[C@H](CC(=O)O)NC(=O)CNC(=O)[C@@H](N)Cc1cnc[nH]1)C(=O)N[C@@H](CC(N)=O)C(=O)N[C@H](C(=O)N[C@H](C(=O)N[C@@H](CC(C)C)C(=O)N[C@@H](CC(=O)O)C(=O)N[C@@H](CC(N)=O)C(=O)N[C@@H](CC(C)C)C(=O)N[C@@H](C)C(=O)N[C@@H](C)C(=O)N[C@@H](CCCNC(=N)N)C(=O)N[C@@H](CC(=O)O)C(=O)N[C@@H](Cc1ccccc1)C(=O)N[C@H](C(=O)N[C@@H](CC(N)=O)C(=O)N[C@@H](Cc1c[nH]c2ccccc12)C(=O)N[C@@H](CC(C)C)C(=O)N[C@H](C(=O)N[C@@H](CCC(N)=O)C(=O)N[C@H](C(=O)N[C@@H](CCCCN)C(N)=O)[C@@H](C)O)[C@@H](C)CC)[C@@H](C)CC)[C@@H](C)CC)[C@@H](C)O [Compound 1, [Gly2,D-Ala4,Nle10] hGLP-2 (1-30)-NH2] (H-HGD[dA]SFSDE[Nle]NTILDNLAARDFINWLIQTK-NH2)",7.1
2,"CCCC[C@H](NC(=O)[C@H](CCC(=O)O)NC(=O)[C@H](CC(=O)O)NC(=O)[C@H](CO)NC(=O)[C@H](Cc1ccccc1)NC(=O)[C@H](CO)NC(=O)CNC(=O)[C@H](CC(=O)O)NC(=O)CNC(=O)[C@@H](N)Cc1c[nH]cn1)C(=O)N[C@@H](CC(N)=O)C(=O)N[C@H](C(=O)N[C@H](C(=O)N[C@@H](CC(C)C)C(=O)N[C@@H](CC(=O)O)C(=O)N[C@@H](CC(C)C)C(=O)N[C@@H](CC(C)C)C(=O)N[C@@H](C)C(=O)N[C@@H](C)C(=O)N[C@@H](CCCNC(=N)N)C(=O)N[C@@H](CC(=O)O)C(=O)N[C@@H](Cc1ccccc1)C(=O)N[C@H](C(=O)N[C@@H](CC(N)=O)C(=O)N[C@@H](Cc1c[nH]c2ccccc12)C(=O)N[C@@H](CC(C)C)C(=O)N[C@H](C(=O)N[C@@H](CCC(N)=O)C(=O)N[C@H](C(=O)N[C@@H](CCCCN)C(N)=O)[C@@H](C)O)[C@@H](C)CC)[C@@H](C)CC)[C@@H](C)CC)[C@@H](C)O [Compound 11, [Gly2,Nle10,Leu16] hGLP-2 (1-30)-NH2] (H-HGDGSFSDE[Nle]NTILDLLAARDFINWLIQTK-NH2)",0.84
3,"CCCC[C@H](NC(=O)[C@H](CCC(=O)O)NC(=O)[C@H](CC(=O)O)NC(=O)[C@H](CO)NC(=O)[C@H](Cc1ccccc1)NC(=O)[C@H](CO)NC(=O)CNC(=O)[C@H](CC(=O)O)NC(=O)CNC(=O)[C@@H](N)Cc1cnc[nH]1)C(=O)N[C@H](Cc1ccccc1)C(=O)N[C@H](C(=O)N[C@H](C(=O)N[C@@H](CC(C)C)C(=O)N[C@@H](CC(=O)O)C(=O)N[C@@H](CC(N)=O)C(=O)N[C@@H](CC(C)C)C(=O)N[C@@H](C)C(=O)N[C@@H](C)C(=O)N[C@@H](CCCNC(=N)N)C(=O)N[C@@H](CC(=O)O)C(=O)N[C@@H](Cc1ccccc1)C(=O)N[C@H](C(=O)N[C@@H](CC(N)=O)C(=O)N[C@@H](Cc1c[nH]c2ccccc12)C(=O)N[C@@H](CC(C)C)C(=O)N[C@H](C(=O)N[C@@H](CCC(N)=O)C(=O)N[C@H](C(=O)N[C@@H](CCCCN)C(N)=O)[C@@H](C)O)[C@@H](C)CC)[C@@H](C)CC)[C@@H](C)CC)[C@@H](C)O [Compound 13, [Gly2,Nle10,D-Phe11] hGLP-2 (1-30)-NH2] (H-HGDGSFSDE[Nle][dF]TILDNLAARDFINWLIQTK-NH2)",1.2
4,"CCCC[C@H](NC(=O)[C@H](CCC(=O)O)NC(=O)[C@H](CC(=O)O)NC(=O)[C@H](CO)NC(=O)[C@H](Cc1ccccc1)NC(=O)[C@H](CO)NC(=O)CNC(=O)[C@H](CC(=O)O)NC(=O)CNC(=O)[C@@H](N)Cc1cnc[nH]1)C(=O)N[C@@H](CC(N)=O)C(=O)N[C@H](C(=O)N[C@H](C(=O)N[C@@H](CC(C)C)C(=O)N[C@@H](CC(=O)O)C(=O)N[C@@H](Cc1cccc2ccccc12)C(=O)N[C@@H](CC(C)C)C(=O)N[C@@H](C)C(=O)N[C@@H](C)C(=O)N[C@@H](CCCNC(=N)N)C(=O)N[C@@H](CC(=O)O)C(=O)N[C@@H](Cc1ccccc1)C(=O)N[C@H](C(=O)N[C@@H](CC(N)=O)C(=O)N[C@@H](Cc1c[nH]c2ccccc12)C(=O)N[C@@H](CC(C)C)C(=O)N[C@H](C(=O)N[C@@H](CCC(N)=O)C(=O)N[C@H](C(=O)N[C@@H](CCCCN)C(N)=O)[C@@H](C)O)[C@@H](C)CC)[C@@H](C)CC)[C@@H](C)CC)[C@@H](C)O [Compound 17, [Gly2,Nle10,1-Nal16] hGLP-2 (1-30)-NH2] (H-HGDGSFSDE[Nle]NTILD[1Nal]LAARDFINWLIQTK-NH2)",0.43
5,"CCCC[C@H](NC(=O)[C@H](CCC(=O)O)NC(=O)[C@H](CC(=O)O)NC(=O)[C@H](CO)NC(=O)[C@H](Cc1ccccc1)NC(=O)[C@H](CO)NC(=O)CNC(=O)[C@H](CC(=O)O)NC(=O)CNC(=O)[C@@H](N)Cc1c[nH]cn1)C(=O)N[C@@H](CC(N)=O)C(=O)N[C@H](C(=O)N[C@H](C(=O)N[C@@H](CC(C)C)C(=O)N[C@@H](CC(=O)O)C(=O)N[C@@H](Cc1ccc(O)cc1)C(=O)N[C@@H](CC(C)C)C(=O)N[C@@H](C)C(=O)N[C@@H](C)C(=O)N[C@@H](CCCNC(=N)N)C(=O)N[C@@H](CC(=O)O)C(=O)N[C@@H](Cc1ccccc1)C(=O)N[C@H](C(=O)N[C@@H](CC(N)=O)C(=O)N[C@@H](Cc1c[nH]c2ccccc12)C(=O)N[C@@H](CC(C)C)C(=O)N[C@H](C(=O)N[C@@H](CCC(N)=O)C(=O)N[C@H](C(=O)N[C@@H](CCCCN)C(N)=O)[C@@H](C)O)[C@@H](C)CC)[C@@H](C)CC)[C@@H](C)CC)[C@@H](C)O [Compound 18, [Gly2,Nle10,Tyr16] hGLP-2 (1-30)-NH2] (H-HGDGSFSDE[Nle]NTILDYLAARDFINWLIQTK-NH2)",1.2

# Next, values leading:
row,clearance [mL/kg/min],SMILES
1,1.2,"CCCC[C@H](NC(=O)[C@H](CCC(=O)O)NC(=O)[C@H](CC(=O)O)NC(=O)[C@H](CO)NC(=O)[C@H](Cc1ccccc1)NC(=O)[C@H](CO)NC(=O)CNC(=O)[C@H](CC(=O)O)NC(=O)CNC(=O)[C@@H](N)Cc1c[nH]cn1)C(=O)N[C@@H](CC(N)=O)C(=O)N[C@H](C(=O)N[C@H](C(=O)N[C@@H](CC(C)C)C(=O)N[C@@H](CC(=O)O)C(=O)N[C@@H](CC(N)=O)C(=O)N[C@@H](CC(C)C)C(=O)N[C@@H](C)C(=O)N[C@@H](C)C(=O)N[C@@H](CCCNC(=N)N)C(=O)N[C@@H](CC(=O)O)C(=O)N[C@@H](Cc1ccccc1)C(=O)N[C@H](C(=O)N[C@@H](CC(N)=O)C(=O)N[C@@H](Cc1c[nH]c2ccccc12)C(=O)N[C@@H](CC(C)C)C(=O)N[C@H](C(=O)N[C@@H](CCC(N)=O)C(=O)N[C@H](C(=O)N[C@@H](CCCCN)C(=O)NCCC(C)C)[C@@H](C)O)[C@@H](C)CC)[C@@H](C)CC)[C@@H](C)CC)[C@@H](C)O [Compound 5, [Gly2,Nle10] hGLP-2 (1-30)-NH-i-Am] (H-HGDGSFSDE[Nle]NTILDNLAARDFINWLIQTK-NHIsopentyl)"
2,6.3,"CCCC[C@H](NC(=O)[C@H](CCC(=O)O)NC(=O)[C@H](CC(=O)O)NC(=O)[C@H](CO)NC(=O)[C@H](Cc1ccccc1)NC(=O)[C@H](CO)NC(=O)CNC(=O)[C@H](CC(=O)O)NC(=O)CNC(=O)[C@@H](N)Cc1c[nH]cn1)C(=O)N[C@@H](CC(N)=O)C(=O)N[C@H](C(=O)N[C@H](C(=O)N[C@@H](CC(C)C)C(=O)N[C@@H](CC(=O)O)C(=O)N[C@@H](CC(N)=O)C(=O)N[C@@H](CC(C)C)C(=O)N[C@@H](C)C(=O)N[C@@H](C)C(=O)N[C@@H](CCCNC(=N)N)C(=O)N[C@@H](CC(=O)O)C(=O)N[C@@H](Cc1ccccc1)C(=O)N[C@H](C(=O)N[C@@H](CC(N)=O)C(=O)N[C@@H](Cc1c[nH]c2ccccc12)C(=O)N[C@@H](CC(C)C)C(=O)N[C@H](C(=O)N[C@@H](CCC(N)=O)C(=O)N[C@H](C(=O)N[C@@H](CCCCN)C(=O)NCC)[C@@H](C)O)[C@@H](C)CC)[C@@H](C)CC)[C@@H](C)CC)[C@@H](C)O [Compound 6, [Gly2,Nle10] hGLP-2 (1-30)-NH—Et] (H-HGDGSFSDE[Nle]NTILDNLAARDFINWLIQTK-NHEt)"

# Same assay, conditions: rat, plasma, adult male Sprague-Dawley rats, i.v. bolus, dose 0.18 mg FB/kg, read-out: CL (ml/kg/min) Average
row,clearance [mL/kg/min],SMILES
1,1.5,"CCCC[C@H](NC(=O)[C@H](CCC(=O)O)NC(=O)[C@H](CC(=O)O)NC(=O)[C@H](CO)NC(=O)[C@H](Cc1ccccc1)NC(=O)[C@H](CO)NC(=O)CNC(=O)[C@H](CC(=O)O)NC(=O)CNC(=O)[C@@H](N)Cc1c[nH]cn1)C(=O)N[C@@H](CC(N)=O)C(=O)N[C@H](C(=O)N[C@H](C(=O)N[C@@H](CC(C)C)C(=O)N[C@@H](CC(=O)O)C(=O)N[C@@H](CC(N)=O)C(=O)N[C@@H](CC(C)C)C(=O)N[C@@H](C)C(=O)N[C@@H](C)C(=O)N[C@@H](CCCNC(=N)N)C(=O)N[C@@H](CC(=O)O)C(=O)N[C@@H](Cc1ccccc1)C(=O)N[C@H](C(=O)N[C@@H](CC(N)=O)C(=O)N[C@@H](Cc1c[nH]c2ccccc12)C(=O)N[C@@H](CC(C)C)C(=O)N[C@H](C(=O)N[C@@H](CCCNC(=N)N)C(=O)N[C@H](C(=O)N[C@@H](CCCCN)C(=O)NCCC(C)C)[C@@H](C)O)[C@@H](C)CC)[C@@H](C)CC)[C@@H](C)CC)[C@@H](C)O [Compound 10, [Gly2,Nle10,Arg28] hGLP-2 (1-30)-NH-i-Am] (H-HGDGSFSDE[Nle]NTILDNLAARDFINWLIRTK-NHIsopentyl)"
